Experimental data from ChEMBL document CHEMBL1641505, “17β-HSD2 inhibitors for the treatment of osteoporosis: Identification of a promising scaffold” (Bioorg Med Chem, 2011).

Columns and labels:
[1] = molecular target: T1, 17-beta-hydroxysteroid dehydrogenase type 1 (Homo sapiens) (UniProt P14061); experiment: Inhibition of [3H]E1 binding to human placental 17beta-HSD1 at 1 uM after 20 mins
T1 sequence (whole entry): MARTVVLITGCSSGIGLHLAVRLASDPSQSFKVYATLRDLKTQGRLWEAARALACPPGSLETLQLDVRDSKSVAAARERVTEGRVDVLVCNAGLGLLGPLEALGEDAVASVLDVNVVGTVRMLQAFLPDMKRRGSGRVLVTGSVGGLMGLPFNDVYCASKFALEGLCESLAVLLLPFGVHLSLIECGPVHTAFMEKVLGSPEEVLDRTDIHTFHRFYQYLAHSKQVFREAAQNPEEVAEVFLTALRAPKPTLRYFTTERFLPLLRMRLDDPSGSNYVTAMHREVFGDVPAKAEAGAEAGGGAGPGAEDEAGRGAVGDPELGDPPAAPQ

[2] = molecular target: T2, 17-beta-hydroxysteroid dehydrogenase type 2 (Homo sapiens) (UniProt P37059); experiment: Inhibition of [3H]E2 binding to human placental 17beta-HSD2 at 1 uM after 20 mins
T2 sequence (whole entry): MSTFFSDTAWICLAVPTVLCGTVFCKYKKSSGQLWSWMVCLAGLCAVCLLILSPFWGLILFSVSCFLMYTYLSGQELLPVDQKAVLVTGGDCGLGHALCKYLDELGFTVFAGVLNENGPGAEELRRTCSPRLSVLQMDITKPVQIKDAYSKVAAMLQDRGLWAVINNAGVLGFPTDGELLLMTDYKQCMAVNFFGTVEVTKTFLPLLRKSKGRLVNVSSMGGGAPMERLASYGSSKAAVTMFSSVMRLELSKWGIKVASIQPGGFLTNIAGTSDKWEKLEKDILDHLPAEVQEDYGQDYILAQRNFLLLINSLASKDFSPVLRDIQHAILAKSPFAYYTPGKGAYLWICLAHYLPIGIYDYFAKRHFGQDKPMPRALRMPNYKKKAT

[3] = molecular target: T3, 17-beta-hydroxysteroid dehydrogenase type 1 (Homo sapiens, UniProt P14061); experiment: Inhibition of [3H]E1 binding to human placental 17beta-HSD1 after 20 mins
T3 sequence (P14061 whole entry): T1 sequence (whole entry)

Homo sapiens = species on record: Homo sapiens; experiment: Selectivity ratio of IC50 for human placental 17beta-HSD1 to IC50 for human placental 17beta-HSD2
[4] = molecular target: T4, 17-beta-hydroxysteroid dehydrogenase type 2 (Homo sapiens, UniProt P37059); experiment: Inhibition of [3H]E2 binding to human placental 17beta-HSD2 after 20 mins
T4 sequence (P37059 whole entry): T2 sequence (whole entry)

[5] = molecular target: T5, Estrogen receptor (Homo sapiens) (UniProt P03372); experiment: Displacement of [3H]E2 from human recombinant ERalpha by liquid scintillation counting relative to estradiol
T5 sequence (whole entry): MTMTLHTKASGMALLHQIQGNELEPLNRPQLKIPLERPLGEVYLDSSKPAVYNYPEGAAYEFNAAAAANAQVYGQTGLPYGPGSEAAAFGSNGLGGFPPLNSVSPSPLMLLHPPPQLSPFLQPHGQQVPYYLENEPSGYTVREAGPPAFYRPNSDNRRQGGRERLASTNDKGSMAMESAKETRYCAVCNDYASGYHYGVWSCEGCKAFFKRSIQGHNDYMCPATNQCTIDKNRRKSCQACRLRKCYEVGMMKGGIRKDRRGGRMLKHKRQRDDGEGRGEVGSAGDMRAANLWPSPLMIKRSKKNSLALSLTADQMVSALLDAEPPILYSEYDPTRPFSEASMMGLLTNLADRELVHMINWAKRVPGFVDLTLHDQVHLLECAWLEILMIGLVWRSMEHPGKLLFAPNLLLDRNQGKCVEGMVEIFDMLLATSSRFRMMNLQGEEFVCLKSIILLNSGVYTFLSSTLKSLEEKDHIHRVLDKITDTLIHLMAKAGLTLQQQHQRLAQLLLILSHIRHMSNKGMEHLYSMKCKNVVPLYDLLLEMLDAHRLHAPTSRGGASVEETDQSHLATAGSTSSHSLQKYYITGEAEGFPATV

[6] = molecular target: Estrogen receptor beta (Homo sapiens) (UniProt Q92731); experiment: Displacement of [3H]E2 from human recombinant ERbeta by liquid scintillation counting relative to estradiol
Sequence of Estrogen receptor beta (Homo sapiens) (Q92731 whole entry): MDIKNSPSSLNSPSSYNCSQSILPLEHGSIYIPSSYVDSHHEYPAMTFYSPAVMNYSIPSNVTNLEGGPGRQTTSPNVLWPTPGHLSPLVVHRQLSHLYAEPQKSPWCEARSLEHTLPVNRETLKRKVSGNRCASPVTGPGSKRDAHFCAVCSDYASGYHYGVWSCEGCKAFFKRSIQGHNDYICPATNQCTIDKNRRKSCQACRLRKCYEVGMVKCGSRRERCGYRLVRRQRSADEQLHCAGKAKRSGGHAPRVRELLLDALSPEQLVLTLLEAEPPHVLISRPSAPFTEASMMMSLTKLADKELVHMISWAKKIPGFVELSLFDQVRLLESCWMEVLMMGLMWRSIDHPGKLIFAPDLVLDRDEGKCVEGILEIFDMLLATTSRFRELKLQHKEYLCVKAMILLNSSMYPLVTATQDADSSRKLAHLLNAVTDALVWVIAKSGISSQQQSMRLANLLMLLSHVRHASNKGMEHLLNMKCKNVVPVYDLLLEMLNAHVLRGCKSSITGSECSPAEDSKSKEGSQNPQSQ

Row | inhibition [1] | inhibition [2] | Structure (SMILES) | further results
1 | < 10% | 14% | Cc1cccc(S(=O)(=O)Nc2ccc(-c3ccc(O)cc3)cc2)c1 | 
2 | < 10% | 46% | CN(C(=O)c1ccccc1)c1cccc(-c2ccc(O)cc2)c1 | 
3 | < 10% | 13% | CNC(=O)c1ccc(-c2ccc3c(O)cccc3c2)cc1 | 
4 | < 10% | 43% | CNC(=O)c1cccc(-c2ccc3c(O)cccc3c2)c1 | 
5 | 44% | 17% | Oc1ccc2cc(-c3ccccc3)ccc2c1 | 
6 | < 10% | < 10% | O=C(Nc1cccc(-c2ccc(CO)cc2)c1)c1ccccc1 | 
7 | < 10% | 16% | O=C(O)c1ccc(-c2ccc3c(O)cccc3c2)cc1 | 
8 | < 10% |  | CN(C(=O)Cc1cccc(O)c1)c1cccc(-c2ccc(O)cc2)c1 | 
9 | < 10% | < 10% | CC(=O)Nc1cccc(-c2ccc(O)cc2)c1 | 
10 | < 10% | < 10% | O=C(Nc1cccc(-c2ccc3c(O)cccc3c2)c1)c1ccccc1 | 
11 | 12% | 64% | CC(=O)Nc1cccc(-c2ccc3c(O)cccc3c2)c1 | IC50 [3]: 8.52 µM; Ratio IC50 (Homo sapiens): 12; IC50 [4]: 0.696 µM
12 | < 10% | < 10% | CN(C(=O)c1ccccc1)c1cccc(-c2ccc(CO)cc2)c1 | 
13 | < 10% | < 10% | CC(=O)Nc1cccc(-c2ccc(CO)cc2)c1 | 
14 | < 10% | 20% | Oc1cccc2cc(-c3ccccc3)ccc12 | 
15 | 20% | 74% | Oc1ccc(-c2ccc3c(O)cccc3c2)cc1 | Activity [5]: 5%; Activity [6]: 5%; Ratio IC50 (Homo sapiens): 8
16 | < 10% | < 10% | O=C(Nc1cccc(-c2ccc(O)cc2)c1)c1ccccc1 | 
17 |  | 12% | Oc1cccc(-c2ccc3ccccc3c2)c1 | 

More lines, now with the values behind:

Row | Structure (SMILES) | inhibition [1] | inhibition [2] | further results
18 | COc1ccc(-c2ccc3c(O)cccc3c2)cc1 | 28% | 20% | 
19 | Oc1cccc2cc(-c3cncnc3)ccc12 | < 10% | < 10% | 
20 | CS(=O)(=O)Nc1ccc(-c2ccc(O)cc2)cc1 | < 10% | < 10% | 
21 | Oc1cccc2cc(-c3ccncc3)ccc12 | < 10% | 26% | 
22 | COc1ccncc1-c1ccc2c(O)cccc2c1 | < 10% | < 10% | 
23 | COc1ccc(CC(=O)N(C)c2cccc(-c3ccc(CO)cc3)c2)cc1 | < 10% | < 10% | 
24 | N#Cc1ccc(-c2ccc3c(O)cccc3c2)cc1 | 16% | 12% | 
25 | Oc1cccc(-c2ccc3c(O)cccc3c2)c1 |  | 32% | 
26 | CNS(=O)(=O)c1ccc(-c2ccc3c(O)cccc3c2)cc1 | 12% | 57% | 
27 | Oc1cccc2cc(-c3ccc(F)cc3)ccc12 | < 10% | < 10% | 
28 | COc1ccc(C(=O)N(C)c2cccc(-c3ccc(CO)cc3)c2)cc1 | < 10% | 14% | 
29 | CS(=O)(=O)Nc1ccc(-c2ccc3c(O)cccc3c2)cc1 | 52% | 75% | IC50 [3]: 0.614 µM; Ratio IC50 (Homo sapiens): 1; IC50 [4]: 0.6 µM
30 | COc1cccc(C(=O)N(C)c2cccc(-c3ccc(CO)cc3)c2)c1 | < 10% | 15% | 
31 | COc1ccc(CC(=O)N(C)c2cccc(-c3ccc(OC)cc3)c2)cc1 | 25% | 10% | 
32 | COc1ccc(C(=O)N(C)c2cccc(-c3ccc(OC)cc3)c2)cc1 | < 10% | 20% | 
33 | CC(=O)c1ccc(-c2ccc3c(O)cccc3c2)cc1 | 16% | < 10% | 
34 | OCc1ccc(-c2ccc3c(O)cccc3c2)cc1 | 14% | 31% | 
35 | Cc1cccc(S(=O)(=O)Nc2ccc(-c3ccc(CO)cc3)cc2)c1 | < 10% | 12% | 
36 | Oc1cccc2cc(-c3ccoc3)ccc12 | < 10% | 13% | 
37 | COc1ccc(-c2cccc(N(C)C(=O)c3cccc(OC)c3)c2)cc1 | 16% | 13% | 
38 | COc1ccc(-c2cccc(N(C)C(=O)Cc3cccc(OC)c3)c2)cc1 | < 10% | < 10% | 
39 | Oc1cccc(-c2ccc3cc(O)ccc3c2)c1 | 100% |  | Ratio IC50 (Homo sapiens): 0.02
40 | COc1cccc(CC(=O)N(C)c2cccc(-c3ccc(CO)cc3)c2)c1 | < 10% | 12% | 
41 | CS(=O)(=O)Nc1ccc(-c2ccc(CO)cc2)cc1 | < 10% | < 10% | 
42 | O=[N+]([O-])c1ccc(-c2ccc3c(O)cccc3c2)cc1 | 15% | 13% | 
43 | CS(=O)(=O)Nc1cccc(-c2ccc3c(O)cccc3c2)c1 | 19% | 22% | 
44 | Oc1ccc2cc(-c3ccccc3O)ccc2c1 |  | < 10% | 
